Test results from ChEMBL document CHEMBL3885861, “Open TG-GATES”.

Species: Rattus norvegicus
Experiment: Open TG-GATES - Regimen: Single
Assay type: toxicity, organism-based, Sprague-Dawley
Design: regimen Single, gender Male, age 6 weeks
Details: in vivo, po, 0 mg/kg, route gavage, dose level Control; for APTT / Bas / Eos / Fbg / Hb / Ht / Lym / MCH / MCHC / MCV / Mono / Neu / PT / Plat / RBC / Ret / WBC: tissue Blood; for KIDNEY_L / KIDNEY_R / KIDNEY_TOTAL: tissue Kidney; for LIVER: tissue Liver; for A/G / ALP / ALT / AST / BUN / CRE / Ca / Cl / DBIL / GLC / IP / K / LDH / Na / PL / RALB / TBIL / TC / TG / TP / gamma-GTP: tissue Plasma

SMILES: CCO [ALCOHOL]
- TERMINAL_BW (3 h): 207 g
- APTT (3 h): 17.7 s
- Bas (3 h): 0%
- Eos (3 h): 1%
- Fbg (3 h): 200.4 mg/dL
- Hb (3 h): 13.3 g/dL
- Ht (3 h): 39.9%
- Lym (3 h): 76%
- MCH (3 h): 21.5 pg
- MCHC (3 h): 33.4%
- MCV (3 h): 64.2 fL
- Mono (3 h): 7.6%
- Neu (3 h): 15.2%
- PT (3 h): 12 s
- Plat (3 h): 110.3 x10_4/uL
- RBC (3 h): 622.4 x10_4/ul
- Ret (3 h): 8.9%
- WBC (3 h): 99.3 x10_2/uL
- KIDNEY_L (3 h): 0.9 g
- KIDNEY_R (3 h): 1 g
- KIDNEY_TOTAL (3 h): 1.9 g
- LIVER (3 h): 9.6 g
- A/G (3 h): 2.7
- ALP (3 h): 951 IU/L
- ALT (3 h): 39.2 IU/L
- AST (3 h): 69 IU/L
- BUN (3 h): 13 mg/dL
- CRE (3 h): 0.5 mg/dL
- Ca (3 h): 10.8 mg/dL
- Cl (3 h): 103.8 meq/L
- DBIL (3 h): 0.02 mg/dL
- GLC (3 h): 192 mg/dL
- IP (3 h): 8.7 mg/dL
- K (3 h): 4.5 meq/L
- LDH (3 h): 103.2 IU/L
- Na (3 h): 140 meq/L
- PL (3 h): 145.8 mg/dL
- RALB (3 h): 3.9 g/dL
- TBIL (3 h): 0.4 mg/dL
- TC (3 h): 83.8 mg/dL
- TG (3 h): 59.6 mg/dL
- TP (3 h): 5.3 g/dL
- gamma-GTP (3 h): 1.4 IU/L
- TERMINAL_BW (6 h): 207 g
- APTT (6 h): 18.8 s
- Bas (6 h): 0%
- Eos (6 h): 1%
- Fbg (6 h): 212 mg/dL
- Hb (6 h): 13.9 g/dL
- Ht (6 h): 41.4%
- Lym (6 h): 74%
- MCH (6 h): 21.8 pg
- MCHC (6 h): 33.5%
- MCV (6 h): 64.9 fL
- Mono (6 h): 9.2%
- Neu (6 h): 15.8%
- PT (6 h): 11.8 s
- Plat (6 h): 116.1 x10_4/uL
- RBC (6 h): 638.8 x10_4/ul
- Ret (6 h): 10.4%
- WBC (6 h): 90.5 x10_2/uL
- KIDNEY_L (6 h): 0.9 g
- KIDNEY_R (6 h): 1 g
- KIDNEY_TOTAL (6 h): 1.9 g
- LIVER (6 h): 9.6 g
- A/G (6 h): 2.4
- ALP (6 h): 727.6 IU/L
- ALT (6 h): 32.4 IU/L
- AST (6 h): 58.2 IU/L
- BUN (6 h): 11 mg/dL
- CRE (6 h): 0.5 mg/dL
- Ca (6 h): 10.4 mg/dL
- Cl (6 h): 105.2 meq/L
- DBIL (6 h): 0.06 mg/dL
- GLC (6 h): 184.8 mg/dL
- IP (6 h): 9.6 mg/dL
- K (6 h): 4.8 meq/L
- LDH (6 h): 62 IU/L
- Na (6 h): 139.6 meq/L
- PL (6 h): 141.8 mg/dL
- RALB (6 h): 3.8 g/dL
- TBIL (6 h): 0.4 mg/dL
- TC (6 h): 80.8 mg/dL
- TG (6 h): 55 mg/dL
- TP (6 h): 5.4 g/dL
- gamma-GTP (6 h): 2 IU/L
- TERMINAL_BW (9 h): 201.1 g
- APTT (9 h): 20.7 s
- Bas (9 h): 0%
- Eos (9 h): 1%
- Fbg (9 h): 199.2 mg/dL
- Hb (9 h): 13.5 g/dL
- Ht (9 h): 40.1%
- Lym (9 h): 66%
- MCH (9 h): 21.8 pg
- MCHC (9 h): 33.7%
- MCV (9 h): 64.6 fL
- Mono (9 h): 9.2%
- Neu (9 h): 23.6%
- PT (9 h): 12.2 s
- Plat (9 h): 112.2 x10_4/uL
- RBC (9 h): 620.8 x10_4/ul
- Ret (9 h): 11.7%
- WBC (9 h): 75.4 x10_2/uL
- KIDNEY_L (9 h): 0.9 g
- KIDNEY_R (9 h): 0.9 g
- KIDNEY_TOTAL (9 h): 1.9 g
- LIVER (9 h): 8.3 g
- A/G (9 h): 2.8
- ALP (9 h): 861 IU/L
- ALT (9 h): 30.8 IU/L
- AST (9 h): 66.8 IU/L
- BUN (9 h): 13.4 mg/dL
- CRE (9 h): 0.5 mg/dL
- Ca (9 h): 10.7 mg/dL
- Cl (9 h): 106.4 meq/L
- DBIL (9 h): 0.038 mg/dL
- GLC (9 h): 196.2 mg/dL
- IP (9 h): 9.8 mg/dL
- K (9 h): 5.1 meq/L
- LDH (9 h): 74.6 IU/L
- Na (9 h): 137.4 meq/L
- PL (9 h): 133.4 mg/dL
- RALB (9 h): 3.9 g/dL
- TBIL (9 h): 0.4 mg/dL
- TC (9 h): 74 mg/dL
- TG (9 h): 46.6 mg/dL
- TP (9 h): 5.3 g/dL
- gamma-GTP (9 h): 2 IU/L
- TERMINAL_BW (24 h): 219 g
- APTT (24 h): 17.7 s
- Bas (24 h): 0%
- Eos (24 h): 1.4%
- Fbg (24 h): 207.4 mg/dL
- Hb (24 h): 13.5 g/dL
- Ht (24 h): 39.6%
- Lym (24 h): 74.8%
- MCH (24 h): 22.3 pg
- MCHC (24 h): 34%
- MCV (24 h): 65.6 fL
- Mono (24 h): 9.8%
- Neu (24 h): 14.6%
- PT (24 h): 11.6 s
- Plat (24 h): 115.5 x10_4/uL
- RBC (24 h): 604 x10_4/ul
- Ret (24 h): 10%
- WBC (24 h): 101.6 x10_2/uL
- KIDNEY_L (24 h): 1 g
- KIDNEY_R (24 h): 1 g
- KIDNEY_TOTAL (24 h): 2 g
- LIVER (24 h): 10.4 g
- A/G (24 h): 2.6
- ALP (24 h): 862 IU/L
- ALT (24 h): 39.8 IU/L
- AST (24 h): 64.8 IU/L
- BUN (24 h): 17.2 mg/dL
- CRE (24 h): 0.5 mg/dL
- Ca (24 h): 10.9 mg/dL
- Cl (24 h): 103.4 meq/L
- DBIL (24 h): 0.006 mg/dL
- GLC (24 h): 194.4 mg/dL
- IP (24 h): 8.5 mg/dL
- K (24 h): 4.7 meq/L
- LDH (24 h): 87.8 IU/L
- Na (24 h): 139 meq/L
- PL (24 h): 150.2 mg/dL
- RALB (24 h): 4 g/dL
- TBIL (24 h): 0.3 mg/dL
- TC (24 h): 83 mg/dL
- TG (24 h): 100.8 mg/dL
- TP (24 h): 5.5 g/dL
- gamma-GTP (24 h): 1.4 IU/L
